US8653087B2, “Pyrido [5, 4-D] pyrimidines as cell proliferation inhibitors” (Boehringer Ingelheim International GmbH, priority 2008, dated 2014)

Biological target: B-Raf (V600E)-kinase (Homo sapiens (Human), UniProt P15056, V600E)
Assay: Kinase test B-RAF (V600E)
Type: biochemical
Conditions: B-RAF (V600E) kinase test, 250 μM ATP
Protocol: Kinase Test B-RAF (V600E)
In a dilution series 10 μL of test substance solution are placed in a multiwell plate. The dilution series is selected so that generally a range of concentrations of 2 μM to 0.119 nM or 0.017 nM is covered. If necessary the initial concentration of 2 μM is changed to 50 μM, 10 μM or 0.4 μM or 0.2857 μM and further dilution is carried out accordingly. The final concentration of DMSO is 5%. 10 μL of the B-Raf (V600E)-kinase solution are pipetted in (containing 0.5 ng B-Raf (V600E)-kinase in 20 mM Tris-HCl pH 7.5, 0.1 mM EDTA, 0.1 mM EGTA, 0.286 mM sodium orthovanadate, 10% glycerol, 1 mg/mL bovine serum albumin, 1 mM dithiothreitol) and the mixture is incubated for 24 h at RT under with shaking. The kinase reaction is started by the addition of 20 μL ATP solution [final concentration: 250 μM ATP, 30 mM Tris-HCl pH 7.5, 0.02% Brij, 0.2 mM sodium orthovanadate, 10 mM magnesium acetate, 0.1 mM EGTA, phosphatase cocktail (Sigma, # P2850, dilution recommended by the manufacturer), 0.1 mM EGTA] and 10 μL MEK1 solution [containing 50 ng biotinylated MEK1 (prepared from purified MEK1 according to standard procedure, e.g. with EZ-Link Sulpho-NHS-LC-Biotin reagent, Pierce, #21335) and carried out for 60 min at RT with constant shaking. The reaction is stopped by the addition of 12 μL of a 100 mM EDTA solution and incubation is continued for a further 5 min. 55 μL of the reaction solution are transferred into a streptavidin-coated plate (e.g. Streptawell HighBond, Roche, #11989685001) and shaken gently for 1 h at RT, in order to bind biotinylated MEK1 to the plate. After elimination of the liquid the plate is washed five times with 200 μL of 1×PBS and 100 μL solution of primary antibody plus europium-labelled secondary antibody [Anti Phospho-MEK (Ser217/221), Cell Signaling, #9121 and Eu-N1 labeled goat-anti-rabbit antibody, Perkin Elmer, # AD0105], the primary antibody is diluted 1:2000 and the secondary antibody is diluted to 0.4-0.5 μg/mL in Delfia Assay Buffer (Perkin Elmer, #1244-111). After 1 h shaking at RT the solution is poured away and washed five times with 200 μL Delfia Wash Buffer (Perkin Elmer, #4010-0010/#1244-114). After the addition of 200 μL Enhancement Solution (Perkin Elmer, #4001-0010/#1244-105) the mixture is shaken for 10 min at RT and then measured in a Wallac Victor using the program “Delfia Time Resolved Fluorescence (Europium)”. IC50 values are obtained from these dosage-activity curves using a software program (GraphPadPrizm).

B-Raf (V600E)-kinase, sequence (P15056 whole entry V600E): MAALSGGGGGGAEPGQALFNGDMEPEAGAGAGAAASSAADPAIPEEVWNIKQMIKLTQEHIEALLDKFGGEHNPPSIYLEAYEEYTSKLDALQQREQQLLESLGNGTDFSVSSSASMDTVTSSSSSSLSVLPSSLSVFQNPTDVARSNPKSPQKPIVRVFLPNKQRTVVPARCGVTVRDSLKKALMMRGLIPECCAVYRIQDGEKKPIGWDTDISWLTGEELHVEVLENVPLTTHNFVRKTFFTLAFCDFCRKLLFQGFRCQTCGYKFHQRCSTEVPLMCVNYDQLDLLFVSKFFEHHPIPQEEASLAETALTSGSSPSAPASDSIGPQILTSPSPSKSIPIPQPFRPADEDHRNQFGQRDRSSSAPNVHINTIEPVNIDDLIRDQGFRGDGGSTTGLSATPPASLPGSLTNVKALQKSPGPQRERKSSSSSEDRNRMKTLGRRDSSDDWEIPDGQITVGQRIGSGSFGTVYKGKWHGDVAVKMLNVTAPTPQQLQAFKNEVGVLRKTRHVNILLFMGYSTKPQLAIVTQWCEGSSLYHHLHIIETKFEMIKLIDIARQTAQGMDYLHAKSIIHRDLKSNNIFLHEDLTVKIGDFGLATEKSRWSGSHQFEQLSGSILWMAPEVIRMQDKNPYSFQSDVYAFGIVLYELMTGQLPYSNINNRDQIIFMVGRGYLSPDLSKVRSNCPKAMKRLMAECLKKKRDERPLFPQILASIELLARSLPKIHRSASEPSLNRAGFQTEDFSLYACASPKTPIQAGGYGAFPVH

| SMILES | IC50 [nM] |
| --- | --- |
| COc1ccc(NC(=O)c2ccc(C)c(Nc3ncnc4c(N)nc(N5CCN(C)CC5)nc34)c2)cc1C(F)(F)F [I-1] | 26 |
| Cc1ccc(C(=O)Nc2cc(Br)cc(C(F)(F)F)c2)cc1Nc1ncnc2c(N)nc(N3CCN(C)CC3)nc12 [I-2] | 9 |
| Cc1ccc(C(=O)Nc2ccc(C(F)(F)F)cc2)cc1Nc1ncnc2c(N)nc(N3CCCN(C)CC3)nc12 [I-3] | 9 |
| Cc1ccc(C(=O)Nc2ccc(C(F)(F)F)cc2)cc1Nc1ncnc2c(N)nc(N3CCNCC3)nc12 [I-4] | 7 |
| Cc1ccc(C(=O)Nc2ccc(C(F)(F)F)cc2)cc1Nc1ncnc2c(N)nc(N3CCN(C)CC3)nc12 [I-5] | 5 |
| Cc1ccc(C(=O)Nc2ccc(C(F)(F)F)cc2)cc1Nc1ncnc2c(N)nc(NCCN(C)C)nc12 [I-6] | 68 |
| Cc1ccc(C(=O)Nc2ccc(C(F)(F)F)cc2)cc1Nc1ncnc2c(N)nc(N3CCN(C4CCN(C)CC4)CC3)nc12 [I-7] | 3 |
| Cc1ccc(C(=O)Nc2ccc(C(F)(F)F)cc2)cc1Nc1ncnc2c(N)nc(N3CCN(CC4CCN(C)CC4)CC3)nc12 [I-8] | 2 |
| Cc1ccc(C(=O)Nc2cc(C(C)(C)C)on2)cc1Nc1ncnc2c(N)nc(N3CCN(C)CC3)nc12 [I-9] | 3 |
| Cc1ccc(C(=O)Nc2cc(C(C)(C)C)on2)cc1Nc1ncnc2c(N)nc(N3CCN(C4CCN(C)CC4)CC3)nc12 [I-10] | 1 |
| Cc1ccc(C(=O)Nc2cc(C(C)(C)C)on2)cc1Nc1ncnc2c(N)nc(N3CCCN(C)CC3)nc12 [I-11] | 1 |
| Cc1ccc(C(=O)Nc2cc(C(C)(C)C)n[nH]2)cc1Nc1ncnc2c(N)nc(N3CCN(C4CCN(C)CC4)CC3)nc12 [I-12] | 2 |
| Cc1ccc(C(=O)Nc2cc(C(C)(C)C)n[nH]2)cc1Nc1ncnc2c(N)nc(N3CCN(CC4CCN(C)CC4)CC3)nc12 [I-13] | 4 |
| Cc1ccc(C(=O)Nc2cc(C(C)(C)C)n[nH]2)cc1Nc1ncnc2c(N)nc(N3CCCN(C)CC3)nc12 [I-14] | 3 |
| COc1ccc(NC(=O)c2ccc(C)c(Nc3ncnc4c(N)nc(N5CCN(C6CCN(C)CC6)CC5)nc34)c2)cc1C(F)(F)F [I-15] | 1 |
| COc1ccc(NC(=O)c2ccc(C)c(Nc3ncnc4c(N)nc(N5CCN(CC6CCN(C)CC6)CC5)nc34)c2)cc1C(F)(F)F [I-16] | 1 |
| COc1ccc(NC(=O)c2ccc(C)c(Nc3ncnc4c(N)nc(N5CCCN(C)CC5)nc34)c2)cc1C(F)(F)F [I-17] | 1 |
| Cc1ccc(C(=O)Nc2cc(C(C)(C)C)n[nH]2)cc1Nc1ncnc2c(N)nc(N3CCN(C)CC3)nc12 [I-18] | 3 |
| CN1CCN(c2nc(N)c3ncnc(Nc4cccc(C(=O)Nc5cccc(C(F)(F)F)c5)c4)c3n2)CC1 [I-19] | 57 |
| CN1CCCN(c2nc(N)c3ncnc(Nc4cccc(C(=O)Nc5cccc(C(F)(F)F)c5)c4)c3n2)CC1 [I-20] | 50 |

| SMILES | IC50 [nM] |
| --- | --- |
| CN1CCC(N2CCN(c3nc(N)c4ncnc(Nc5cccc(C(=O)Nc6cccc(C(F)(F)F)c6)c5)c4n3)CC2)CC1 [I-21] | 22 |
| CN1CCC(CN2CCN(c3nc(N)c4ncnc(Nc5cccc(C(=O)Nc6cccc(C(F)(F)F)c6)c5)c4n3)CC2)CC1 [I-22] | 13 |
| CN1CCN(c2nc(N)c3ncnc(Nc4cc(C(=O)Nc5cccc(C(F)(F)F)c5)ccc4Cl)c3n2)CC1 [I-23] | 14 |
| CN1CCCN(c2nc(N)c3ncnc(Nc4cc(C(=O)Nc5cccc(C(F)(F)F)c5)ccc4Cl)c3n2)CC1 [I-24] | 9 |
| CN1CCC(N2CCN(c3nc(N)c4ncnc(Nc5cc(C(=O)Nc6cccc(C(F)(F)F)c6)ccc5Cl)c4n3)CC2)CC1 [I-25] | 3 |
| CN1CCN(c2nc(N)c3ncnc(Nc4cc(C(=O)Nc5cccc(C(F)(F)F)c5)ccc4Br)c3n2)CC1 [I-26] | 70 |
| CN1CCCN(c2nc(N)c3ncnc(Nc4cc(C(=O)Nc5cccc(C(F)(F)F)c5)ccc4Br)c3n2)CC1 [I-27] | 83 |
| CN1CCC(N2CCN(c3nc(N)c4ncnc(Nc5cc(C(=O)Nc6cccc(C(F)(F)F)c6)ccc5Br)c4n3)CC2)CC1 [I-28] | 13 |
| CN1CCC(CN2CCN(c3nc(N)c4ncnc(Nc5cc(C(=O)Nc6cccc(C(F)(F)F)c6)ccc5Br)c4n3)CC2)CC1 [I-29] | 15 |
| COc1ccc(C(=O)Nc2cccc(C(F)(F)F)c2)cc1Nc1ncnc2c(N)nc(N3CCN(C)CC3)nc12 [I-30] | 35 |
| COc1ccc(C(=O)Nc2cccc(C(F)(F)F)c2)cc1Nc1ncnc2c(N)nc(N3CCCN(C)CC3)nc12 [I-31] | 58 |
| COc1ccc(C(=O)Nc2cccc(C(F)(F)F)c2)cc1Nc1ncnc2c(N)nc(N3CCN(C4CCN(C)CC4)CC3)nc12 [I-32] | 14 |
| COc1ccc(C(=O)Nc2cccc(C(F)(F)F)c2)cc1Nc1ncnc2c(N)nc(N3CCN(CC4CCN(C)CC4)CC3)nc12 [I-33] | 12 |
| Cc1ccc(C(=O)Nc2cc(C(C)(C)C)n[nH]2)cc1Nc1ncnc2c(N)nc(N3CCN4CCCC4C3)nc12 (stereo not shown) [I-34] | 2 |
| Cc1ccc(C(=O)Nc2cc(C(C)(C)C)n[nH]2)cc1Nc1ncnc2c(N)nc(N3C[C@@H](C)N[C@@H](C)C3)nc12 [I-35] | 2 |
| Cc1ccc(C(=O)Nc2cc(C(C)(C)C)n[nH]2)cc1Nc1ncnc2c(N)nc(N3C[C@H]4C[C@@H]3CN4C)nc12 [I-36] | 4 |
| Cc1ccc(C(=O)Nc2cc(C(C)(C)C)n[nH]2)cc1Nc1ncnc2c(N)nc(N3CCN(CC(C)C)CC3)nc12 [I-37] | 4 |
| Cc1ccc(C(=O)Nc2cc(C(C)(C)C)n[nH]2)cc1Nc1ncnc2c(N)nc(N3CCN(CC4CCCO4)CC3)nc12 (stereo not shown) [I-38] | 6 |
| Cc1ccc(C(=O)Nc2cc(C(C)(C)C)n[nH]2)cc1Nc1ncnc2c(N)nc(N3CCN(C4CCCC4)CC3)nc12 [I-39] | 5 |
| Cc1ccc(C(=O)Nc2cc(C(C)(C)C)n[nH]2)cc1Nc1ncnc2c(N)nc(N3CCN(CC4CCCN(C)C4)CC3)nc12 (stereo not shown) [I-40] | 3 |

| SMILES | IC50 [nM] |
| --- | --- |
| COCCN1CCN(c2nc(N)c3ncnc(Nc4cc(C(=O)Nc5cc(C(C)(C)C)n[nH]5)ccc4C)c3n2)CC1 [I-41] | 5 |
| Cc1ccc(C(=O)Nc2cc(C(C)(C)C)n[nH]2)cc1Nc1ncnc2c(N)nc(N3CCN(C4CC4)CC3)nc12 [I-42] | 9 |
| Cc1ccc(C(=O)Nc2cc(C(C)(C)C)n[nH]2)cc1Nc1ncnc2c(N)nc(N3CCN4CCCCC4C3)nc12 (stereo not shown) [I-43] | 4 |
| Cc1ccc(C(=O)Nc2cc(C(C)(C)C)n[nH]2)cc1Nc1ncnc2c(N)nc(N3CCC(N4CCN(C)CC4)CC3)nc12 [I-52] | 55 |
| COc1ccc(C(C)(C)C)cc1NC(=O)c1ccc(C)c(Nc2ncnc3c(N)nc(N4CCN(C)CC4)nc23)c1 [I-53] | 21 |
| COc1cc(NC(=O)c2ccc(C)c(Nc3ncnc4c(N)nc(N5CCN(C)CC5)nc34)c2)cc(C(F)(F)F)c1 [I-54] | 5 |
| Cc1ccc(C(=O)Nc2cccc(C(F)(F)F)c2)cc1Nc1ncnc2c(N)nc(N3CCN(C)CC3)nc12 [I-55] | < 1 |
| Cc1ccc(C(=O)Nc2cccc(C(F)(F)F)c2)cc1Nc1ncnc2c(N)nc(N3CCN(C4CCN(C)CC4)CC3)nc12 [I-56] | < 1 |
| Cc1ccc(C(=O)Nc2cccc(C(F)(F)F)c2)cc1Nc1ncnc2c(N)nc(N3CCN(C4CCCC4)CC3)nc12 [I-57] | < 1 |
| Cc1ccc(C(=O)Nc2cccc(C(F)(F)F)c2)cc1Nc1ncnc2c(N)nc(N3CCCN(C4CC4)CC3)nc12 [I-58] | 1 |
| Cc1ccc(C(=O)Nc2cccc(C(F)(F)F)c2)cc1Nc1ncnc2c(N)nc(N3CCCNCC3)nc12 [I-59] | 1 |
| Cc1ccc(C(=O)Nc2cccc(C(F)(F)F)c2)cc1Nc1ncnc2c(N)nc(N3CCCN(c4ccncc4)CC3)nc12 [I-60] | < 1 |
| Cc1ccc(C(=O)Nc2cccc(C(F)(F)F)c2)cc1Nc1ncnc2c(N)nc(N3CCN(CC4CCN(C)CC4)CC3)nc12 [I-61] | < 1 |
| Cc1ccc(C(=O)Nc2cccc(C(F)(F)F)c2)cc1Nc1ncnc2c(N)nc(N3CC(C)NC(C)C3)nc12 (stereo not shown) [I-62] | 2 |
| Cc1ccc(C(=O)Nc2cccc(C(F)(F)F)c2)cc1Nc1ncnc2c(N)nc(N3CCCN(c4ncccn4)CC3)nc12 [I-63] | 1 |
| Cc1ccc(C(=O)Nc2cccc(C(F)(F)F)c2)cc1Nc1ncnc2c(N)nc(N3CCN(C(C)C)CC3)nc12 [I-64] | < 1 |
| Cc1ccc(C(=O)Nc2cccc(C(F)(F)F)c2)cc1Nc1ncnc2c(N)nc(N3C[C@H]4C[C@@H]3CN4C)nc12 [I-65] | < 1 |
| Cc1ccc(C(=O)Nc2cccc(C(F)(F)F)c2)cc1Nc1ncnc2c(N)nc(N3CCNCC3)nc12 [I-66] | < 1 |
